US10028902B2, “Nuclear localization of GLP-1 stimulates myocardial regeneration and reverses heart failure” (BAYLOR RESEARCH INSTITUTE, priority 2013, dated 2018)

Assays:
[1] = system: FoxO1; experiment: FOXO1 inhibitor injection in rats with ADM cardiomyopathy; type: in vivo, rat; details: total dose 24 mg/kg ip
Procedure: Animal protocol-4: Specific FOXO1 inhibitor (AS1842856, a small molecular compound from Millipore) was injected into rats with ADM cardiomyopathy to investigate if FOXO1 mediates ADM cardiomyopathy. There were 3 groups of rats as follows: (1) normal control rats, n=6; (2) ADM injection only group at total dose of 15 mg/kg/ip, 2.5 mg/kg/ip 6 times over 2 weeks, (n=6); (3) ADM at total dose of 15 mg/kg/ip, 2.5 mg/kg/ip 6 times over 2 weeks plus FOXO1 inhibitor injection (at total dose of 24 mg/kg/ip, 4 mg/kg/ip 6 times over 2 weeks (n=6). All rats were killed 4 weeks after ADM injection.
(§1) Echocardiographic measurements of LV fractional shortening and LV posterior wall thickness were made from digital images acquired with a 12 MHz broadband transducer (S12 probe, Philips Ultrasound, Bothell, Wash.). Fractional shortening was evaluated from the following formula: FS=(LVIDd−LVIDs)/LVIDd×100.

[2] = system: rat hearts with adriamycin cardiomyopathy; experiment: Adriamycin cardiomyopathy in rats: gross pathology, Masson's trichrome staining, echocardiography; type: in vivo
Procedure: (§2) Animal protocol-2: A total of 60 rats were divided into: (1) no treatment (normal control rats, n=12); (2) adriamycin (ADM)^38 injection only, at total dose of 15 mg/kg/ip, 2.5 mg/kg/ip 6 times over 2 weeks, n=12. (3) ADM plus GLP-1 peptide injection, at GLP-1 peptide fragment 7-37 human (dose of 50 nmol/kg/ip/time×6, N=12, from Sigma, St Louis, Mo.), (4) ADM injection plus UTMD-GLP1 peptide delivery (same dose of GLP-1 peptide fragment 7-37 human mixed with microbubble for UTMD), n=12; (5) ADM injection plus UTMD with pXL-BASII-CI-GLP-1/pCI-hyPB, n=12. Half rats were killed at 16 hours after last ADM injection; other half rats were killed at 4 weeks after UTMD. The thymidine analog, 5-bromo-2-deoxyuridine (BrdU) (100 mg/kg) was injected intraperitoneally 6 hours prior to euthanasia.
Animal protocol-3: UTMD was performed after established adriamycin cardiomyopathy defined as a fractional shortening <30% by echocardiography. There were 3 groups of rats as follows: (1) normal control rats, n=6; (2) UTMD with pXL-BASII-CI-DsRed/pCI-hyPB (n=6); (3) UTMD with pXL-BASII-CI-GLP-1/pCI-hyPB (n=12). All rats were killed 4 weeks after UTMD. The thymidine analog, 5-bromo-2-deoxyuridine (BrdU) (100 mg/kg) was injected intraperitoneally 6 hours prior to euthanasia.
Piggybac transposon donor plasmids and helper plasmids ratio (pXL-BASII-CI-GLP-1/pCI-hyPB) was 5:1. Microbubble or control solutions (0.5 ml diluted with 0.5 ml phosphate-buffered solution (PBS)) were infused over 5 min via pump (Genie, Kent Scientific, Torrington, Conn.). During the infusion, ultrasound was directed to the heart using a commercially available ultrasound transducer (S3, Sonos 5500, Philips Ultrasound, Bothell, Wash.). […]
as §1

[3] = system: FoxO1; experiment: Myocardial nuclear FoxO1 in adriamycin cardiomyopathy rats (western blot, qRT-PCR); type: in vivo, rat
Procedure: as §2, with “euthanasia. […]” for “euthanasia.”
(§3) Nuclear proteins extracts from cardiac tissue with a NE-PER Nuclear and Cytoplasmic Extraction Kit (Thermo Scientific, Rockford, Ill. 61105, USA). Protein concentrations were determined using the BCA-200 Protein Assay kit (Pierce); equal amounts of protein were separated by SDS-PAGE. […] Horseradish peroxidase secondary antibodies were used, and chemiluminescence was determined using the Super Signal West Dura detection system (Pierce); nuclear marker (lamin) was used to confirm equal loading. […]

[4] = system: HL-1 cardiac muscle cell line; experiment: Nuclear FoxO1 in HL-1 cardiac muscle cell line treated with adriamycin (immunofluorescent staining); type: cell-based; details: 0.25, 0.5, and 1.0 μM, 48 hrs, HL-1 cells
Procedure: The HL-1 cell line was a generous gift from Dr. William C. Claycomb^40 in Louisiana State University Medical Center, New Orleans, La. The cells were maintained in Claycomb basal medium (Sigma) supplemented with 10% fetal bovine serum, 0.1 mM norepinephrine and 2 mM L-glutamine. HL-1 cells were treated with adriamycin at 0 μM, 0.25 μM, 0.50 μM, or 1.00 μM for 48 hrs in complete growth medium, and were subjected to immunofluorescent staining.

[5] = system: Topoisomerase IIβ; experiment: Myocardial nuclear topoisomerase IIβ expression (western blot, qRT-PCR); type: in vivo, rat; details: ADM only or ADM plus UTMD-GLP-1NLS groups, P<0.001
Procedure: […] Half rats were killed at 16 hours after last ADM injection; other half rats were killed at 4 weeks after UTMD. The thymidine analog, 5-bromo-2-deoxyuridine (BrdU) (100 mg/kg) was injected intraperitoneally 6 hours prior to euthanasia.
Total RNA was isolated from 100 mg of harvested heart using the Trizol reagent (Invitrogen), according to the manufacturer's instructions and reverse-transcribed using Superscript III RT (Invitrogen). Real-time RT-qPCR analysis was performed on an ABI 7700 Sequence Detector (Applied Biosystems) using SYBR Green (RT2 SYBR Green qPCR Kit, Qiagen). Data were normalized to HKG expression (endogenous control). Changes in gene expression were normalized to control rat heart tissue. Complementary DNA PCR primer sequences information should be requested to the correspondence author.
as §3

[6] = intravenous infusions, patients with myocardial infarction or chronic heart failure; cited from earlier work

CCn1cc(C(=O)O)c(=O)c2c(N)c(F)c(NC3CCCCC3)cc21 [AS1842856]
activation of myocardial nuclear FoxO1 ([1]; ADM cardiomyopathy rats, FIG. 12): able to block | ADM cardiomyopathy (fractional shortening, LVPWd) ([1]; FIG. 12 panel A-B): reverse

COc1cccc2c1C(=O)c1c(O)c3c(c(O)c1C2=O)C[C@@](O)(C(=O)CO)C[C@@H]3O[C@H]1C[C@H](N)[C@H](O)[C@H](C)O1 [Adriamycin, adriamycin]
LV mass and wall thickness ([2]; echocardiography, adriamycin cardiomyopathy, total dose 15 mg/kg ip): decreased | gross pathology of LV walls and cavities compared to normal controls ([2]; rats with adriamycin cardiomyopathy, FIG. 2 B, C): thin LV walls and dilated LV cavities | FoxO1 mRNA level, fold relative to normal control or normal plus UTMD-GLP-1NLS groups ([3]; qRT-PCR, FIG. 6B, ADM only group, or ADM after UTMD GLP-1NLS gene delivery): 12.6 fold | FoxO1 in cardiac nuclear protein extracts ([3]; western blots, FIG. 6A): significant increase | overexpression of nuclear FoxO1 [4]: significantly activates | TOP IIβ mRNA level in normal group, fold greater than in the treated group [5]: 18 fold

GLP-1 peptide fragment 7-37 human (HAEGTFTSDVSSYLEGQAAKEFIAWLVKGRG; Glucagon-like peptide 1(7-37); UniProt P01275 98-128, looked up) [GLP-1 peptide fragment 7-37 human from Sigma, injected ip]
LV mass and wall thickness in adriamycin cardiomyopathy after therapy ([2]; echocardiography, FIGS. 4 and 11): not

GLP-1 protein: GLP-1 protein given by intravenous infusion to patients in cited studies
global LV function and the function of ischemic LV segments [6]: improved
